# Measurements published in patent US7166611B2, “Pharmaceutical compositions having appetite suppressant activity” (priority 1997, dated 2007).
# Assays:
# Type in all cases: in vivo, rat
# rats = assay: Bioassay of chromatographic fractions for appetite suppressant activity; details: bioassay of fractions from silica gel chromatography
# Description: The extract may be prepared from plant material such as the stems and roots of said plants of the genus Trichocaulon or of the genus Hoodia. The genus Trichocaulon and the genus Hoodia include succulent plants growing in arid regions such as are found in Southern Africa. In one application of the invention, the active appetite suppressant extract is obtained from the species Trichocaulon piliferum. The species Trichocaulon officinale may also be used to provide an active appetite suppressant extract. In another application of the invention, the active appetite suppressant extract may be obtained from the species Hoodia currorii, Hoodia gordonii or Hoodia lugardii.
# The partially purified active extract may be dissolved in methanol, and may be further fractionated by column chromatography, employing silica gel as an adsorption medium and a chloroform/30% methanol mixture as an eluent. A plurality of different fractions may be obtained, and each may be evaluated, by suitable bioassaying procedures, to determine the appetite suppressant activity thereof.
# A fraction having appetite suppressant activity may preferably be further fractionated such as by column chromatography using silica gel as an adsorption medium and a 9:1 chloroform:methanol solvent, and the resultant sub-fractions bioassayed for their appetite suppressant activity. […]
# male Wistar rats [1] = assay: Example 44 single oral dose study: food consumption
# Procedure: (§1) Sample 1 to 3 were each administered as a single oral dose to male Wistar rats. Two additional control groups received vehicle (distilled water or DMSO). Orally administered fenfluramine (7.5 mg/kg) was included as a reference standard.
# (§2) Fifty-five male Wistar rats were used for the study.
# (§3) Bodyweights, food consumption (food hopper weight) and water consumption (bottle weight) were recorded daily at the same time each day from the day of arrival until the termination of the study.
# (§4) On Day 1, the rats received a single oral (gavage) dose according to the following table:
# (§5) Groups 1–8 were dosed using a constant dose volume of 10 ml/kg and groups 9–12 were dosed using a dose volume of 1 ml/kg.
# (§6) Food and water consumption were also measured at […] after dosing on Day 1.
# (§7) The post-dose food and water consumption measurements and bodyweights at each time-point for the P57-treated animals were compared with those for the relevant, similarly-treated vehicle control group using analysis of variance followed by Williams' test for comparisons with controls.
# (§8) The data for the fenfluramine-treated animals was compared with that for the vehicle-treated control group using Student's t test.
# male Wistar rats [2] = assay: Example 44 single oral dose study: water consumption
# Procedure: as §1, §2, §3, §4, §5, §6, §7, §8
# [3] = Example 44 single oral dose study: bodyweight
# Procedure: as §1, §2, §3, §4, §5, §7, §8
# male Wistar rats [4] = assay: Example 44 single oral dose study: liver histopathology; details: for Liver (ORO stain): Hepatocyte fat - centrilobular(Total) / Liver (ORO stain): Hepatocyte fat - centrilobular, Minimal / Liver (ORO stain): No abnormalities detected / Liver: Hepatocyte necrosis - focal (Total) / Liver: Hepatocyte necrosis - focal, Minimal / Liver: No abnormalities detected (incidence) / Liver: Parenchymal inflammatory cell foci (Total) / Liver: Parenchymal inflammatory cell foci, Minimal / Liver: Portal leucocytes (Total) / Liver: Portal leucocytes, Minimal / Liver: Portal lymphoid infiltration (Total) / Liver: Portal lymphoid infiltration, Minimal: 5 examined
# Description: Following the measurements of Day 8, the animals were killed by carbon dioxide asphyxiation, and the livers excised and placed in 10% buffered formalin, prior to histology.
# Paraffin wax sections of each liver were taken at 4–5 μm and stained with haematoxylin and eosin. Additional sections were cut on a cryostat at 12 μm and stained for fat with Oil Red O (ORO).
# Histological examination was restricted to the liver.
# young female rats = assay: Oral Dose Anorectic Test, three consecutive days
# Procedure: Animals were allocated to treatment groups using randomisation tables. Each treatment group consisted of three animals, with 6 animals in the control group. The test sample was dosed to young female rats with body weight 100–150 g at acclimatisation, for three consecutive days. Animals were identified by means of metallic ear tags and KMnO4 skin markings for easy identification. Animals were housed individually in standard rodent polycarbonate cages, and water and powdered commercial rodent pellets were available ad libitum. Water and food intakes were measured and calculated for each day. In order to find the minimum effective dose of the test sample, five doses were tested. Treatment was by oral gavage, with the test sample suspended in potato starch.
# The test substance was compound (1), a white granular powder prepared from an extract from plant material in accordance with the invention, and the measured quantity of the test sample was mixed with prepared potato starch and dosed. Mixing with potato starch took place immediately before dosing on each day. Before withdrawal of the dosing volume for each animal, the suspensions were mixed thoroughly using a Vortex.
# A range of five doses was tested, with a control group 15 receiving only the carrier substance.
# [5] = 2.5 and 5.0 mg/kg single oral dose
# [6] = 2.5 mg/kg single oral dose on Day 1
# [7] = 5.0 mg/kg single oral dose on Day 1
molecule,measurement,setting,value
3-0-[-β-D-thevetopyranosyl-(1→4)-β-D-cymaropyranosyl-(1→4)-β-D-cymaropyranosyl]-12β-0-tigloyloxy-14-hydroxy-14β-pregn-5-en-20-one [Compound (1)],appetite suppressant activity,rats,marked appetite suppressant activity
same,Group mean food consumption (g ± sd) between Days: 1–2,male Wistar rats [1]; 2.5 mg/kg single oral dose,26.8 ± 3.33 g
same,Group mean food consumption (g ± sd) between Days: 2–3,male Wistar rats [1]; 2.5 mg/kg single oral dose,29.1 ± 3.43 g
same,Group mean food consumption (g ± sd) between Days: 3–4,male Wistar rats [1]; 2.5 mg/kg single oral dose,31.7 ± 3.08 g
same,Group mean food consumption (g ± sd) between Days: 4–5,male Wistar rats [1]; 2.5 mg/kg single oral dose,34.0 ± 2.95 g
same,Group mean food consumption (g ± sd) between Days: 5–6,male Wistar rats [1]; 2.5 mg/kg single oral dose,34.4 ± 4.32 g
same,Group mean food consumption (g ± sd) between Days: 6–7,male Wistar rats [1]; 2.5 mg/kg single oral dose,33.1 ± 4.11 g
same,Group mean food consumption (g ± sd) between Days: 7–8,male Wistar rats [1]; 2.5 mg/kg single oral dose,34.8 ± 3.71 g
same,Group mean food consumption (g ± sd) between Days: 1–2,male Wistar rats [1]; 5.0 mg/kg single oral dose,22.1 ± 2.19 g
same,Group mean food consumption (g ± sd) between Days: 2–3,male Wistar rats [1]; 5.0 mg/kg single oral dose,21.0 ± 3.07 g
same,Group mean food consumption (g ± sd) between Days: 3–4,male Wistar rats [1]; 5.0 mg/kg single oral dose,27.6 ± 5.26 g
same,Group mean food consumption (g ± sd) between Days: 4–5,male Wistar rats [1]; 5.0 mg/kg single oral dose,30.5 ± 3.33 g
same,Group mean food consumption (g ± sd) between Days: 5–6,male Wistar rats [1]; 5.0 mg/kg single oral dose,33.0 ± 3.16 g
same,Group mean food consumption (g ± sd) between Days: 6–7,male Wistar rats [1]; 5.0 mg/kg single oral dose,32.4 ± 3.25 g
same,Group mean food consumption (g ± sd) between Days: 7–8,male Wistar rats [1]; 5.0 mg/kg single oral dose,33.0 ± 3.84 g
same,duration of reduction in food consumption,male Wistar rats [1]; 5.0 mg/kg single oral dose,48 hours post-dose
same,food consumption versus vehicle-treated animals,male Wistar rats [1]; 5.0 mg/kg single oral dose,statistically significant reductions in food consumption
same,Group mean water consumption (g ± sd) between Days: 1–2,male Wistar rats [2]; 2.5 mg/kg single oral dose,32.2 ± 4.01 g
same,Group mean water consumption (g ± sd) between Days: 2–3,male Wistar rats [2]; 2.5 mg/kg single oral dose,36.1 ± 12.42 g
same,Group mean water consumption (g ± sd) between Days: 3–4,male Wistar rats [2]; 2.5 mg/kg single oral dose,38.3 ± 11.71 g
same,Group mean water consumption (g ± sd) between Days: 4–5,male Wistar rats [2]; 2.5 mg/kg single oral dose,41.5 ± 16.60 g
same,Group mean water consumption (g ± sd) between Days: 5–6,male Wistar rats [2]; 2.5 mg/kg single oral dose,34.7 ± 7.57 g
same,Group mean water consumption (g ± sd) between Days: 6–7,male Wistar rats [2]; 2.5 mg/kg single oral dose,33.0 ± 4.20 g
same,Group mean water consumption (g ± sd) between Days: 7–8,male Wistar rats [2]; 2.5 mg/kg single oral dose,35.3 ± 8.70 g
same,Group mean water consumption (g ± sd) between Days: 1–2,male Wistar rats [2]; 5.0 mg/kg single oral dose,33.9 ± 2.40 g
same,Group mean water consumption (g ± sd) between Days: 2–3,male Wistar rats [2]; 5.0 mg/kg single oral dose,31.5 ± 8.12 g
same,Group mean water consumption (g ± sd) between Days: 3–4,male Wistar rats [2]; 5.0 mg/kg single oral dose,35.1 ± 3.82 g
same,Group mean water consumption (g ± sd) between Days: 4–5,male Wistar rats [2]; 5.0 mg/kg single oral dose,37.7 ± 5.99 g
same,Group mean water consumption (g ± sd) between Days: 5–6,male Wistar rats [2]; 5.0 mg/kg single oral dose,39.5 ± 7.78 g
same,Group mean water consumption (g ± sd) between Days: 6–7,male Wistar rats [2]; 5.0 mg/kg single oral dose,37.4 ± 11.07 g
same,Group mean water consumption (g ± sd) between Days: 7–8,male Wistar rats [2]; 5.0 mg/kg single oral dose,37.8 ± 6.42 g
same,effects on water consumption,male Wistar rats [2]; [5],No statistically significant effects on water consumption
same,Group mean bodyweight (g ± sd) on Day: 2,[3]; [6],191.2 ± 11.15 g
same,Group mean bodyweight (g ± sd) on Day: 3,[3]; [6],200.0 ± 11.25 g
same,Group mean bodyweight (g ± sd) on Day: 4,[3]; [6],209.6 ± 12.28 g
same,Group mean bodyweight (g ± sd) on Day: 5,[3]; [6],219.6 ± 12.95 g
same,Group mean bodyweight (g ± sd) on Day: 6,[3]; [6],229.4 ± 13.69 g
same,Group mean bodyweight (g ± sd) on Day: 7,[3]; [6],238.4 ± 14.50 g
same,Group mean bodyweight (g ± sd) on Day: 8,[3]; [6],247.0 ± 14.35 g
same,Group mean bodyweight (g ± sd) on Day: 2,[3]; [7],192.0 ± 9.93 g
same,Group mean bodyweight (g ± sd) on Day: 3,[3]; [7],192.4 ± 9.84 g
same,Group mean bodyweight (g ± sd) on Day: 4,[3]; [7],201.0 ± 11.27 g
same,Group mean bodyweight (g ± sd) on Day: 5,[3]; [7],209.4 ± 12.70 g
same,Group mean bodyweight (g ± sd) on Day: 6,[3]; [7],219.8 ± 11.86 g
same,Group mean bodyweight (g ± sd) on Day: 7,[3]; [7],228.2 ± 12.28 g
same,Group mean bodyweight (g ± sd) on Day: 8,[3]; [7],236.0 ± 13.95 g
same,effects on bodyweights,[3]; [5],No statistically significant effects on bodyweights
same,Liver (ORO stain): Hepatocyte fat - centrilobular(Total),"male Wistar rats [4]; Group 9, 2.5 mg/kg",2
same,"Liver (ORO stain): Hepatocyte fat - centrilobular, Minimal","male Wistar rats [4]; Group 9, 2.5 mg/kg",2
same,Liver (ORO stain): No abnormalities detected,"male Wistar rats [4]; Group 9, 2.5 mg/kg",3
same,Liver: Hepatocyte necrosis - focal (Total),"male Wistar rats [4]; Group 9, 2.5 mg/kg",1
same,"Liver: Hepatocyte necrosis - focal, Minimal","male Wistar rats [4]; Group 9, 2.5 mg/kg",1
same,Liver: No abnormalities detected (incidence),"male Wistar rats [4]; Group 9, 2.5 mg/kg",0
same,Liver: Parenchymal inflammatory cell foci (Total),"male Wistar rats [4]; Group 9, 2.5 mg/kg",0
same,"Liver: Parenchymal inflammatory cell foci, Minimal","male Wistar rats [4]; Group 9, 2.5 mg/kg",0
same,Liver: Portal leucocytes (Total),"male Wistar rats [4]; Group 9, 2.5 mg/kg",1
same,"Liver: Portal leucocytes, Minimal","male Wistar rats [4]; Group 9, 2.5 mg/kg",1
same,Liver: Portal lymphoid infiltration (Total),"male Wistar rats [4]; Group 9, 2.5 mg/kg",5
same,"Liver: Portal lymphoid infiltration, Minimal","male Wistar rats [4]; Group 9, 2.5 mg/kg",5
same,Liver (ORO stain): Hepatocyte fat - centrilobular(Total),"male Wistar rats [4]; Group 10, 5 mg/kg",2
same,"Liver (ORO stain): Hepatocyte fat - centrilobular, Minimal","male Wistar rats [4]; Group 10, 5 mg/kg",2
same,Liver (ORO stain): No abnormalities detected,"male Wistar rats [4]; Group 10, 5 mg/kg",3
same,Liver: Hepatocyte necrosis - focal (Total),"male Wistar rats [4]; Group 10, 5 mg/kg",0
same,"Liver: Hepatocyte necrosis - focal, Minimal","male Wistar rats [4]; Group 10, 5 mg/kg",0
same,Liver: No abnormalities detected (incidence),"male Wistar rats [4]; Group 10, 5 mg/kg",1
same,Liver: Parenchymal inflammatory cell foci (Total),"male Wistar rats [4]; Group 10, 5 mg/kg",0
same,"Liver: Parenchymal inflammatory cell foci, Minimal","male Wistar rats [4]; Group 10, 5 mg/kg",0
same,Liver: Portal leucocytes (Total),"male Wistar rats [4]; Group 10, 5 mg/kg",0
same,"Liver: Portal leucocytes, Minimal","male Wistar rats [4]; Group 10, 5 mg/kg",0
same,Liver: Portal lymphoid infiltration (Total),"male Wistar rats [4]; Group 10, 5 mg/kg",4
same,"Liver: Portal lymphoid infiltration, Minimal","male Wistar rats [4]; Group 10, 5 mg/kg",4
same,histological examination of the liver,"male Wistar rats [4]; all doses tested, single oral dose, livers taken Day 8",No treatment-related changes were detected
"C/C=C(\C)C(=O)O[C@@H]1CC2C(CC=C3C[C@@H](OC4CC(OC)C(OC5CC(OC)C(OC6OC(C)C(O)C(OC)C6O)C(C)O5)C(C)O4)CC[C@@]32C)[C@@]2(O)CC[C@H](C(C)=O)[C@@]12C (stereo partly drawn) [Compound (1), 3-0-[-β-D-thevetopyranosyl-(1→4)-β-D-cymaropyranosyl-(1→4)-β-D-cymaropyranosyl]-12β-0-tigloyloxy-14-hydroxy-14β-pregn-5-en-20-one]",appetite suppressant activity,rats,found to have appetite suppressing activity
same,body mass,"young female rats; 12.50 mg/kg group, oral",Actual loss in body mass
same,health of the animals,"young female rats; 6.25–50.00 mg/kg oral gavage, three consecutive days",Treatment did not affect the health of the animals
same,liver at post-mortem examination,young female rats; all dose groups 6.25–50.00 mg/kg oral,friable livers
same,mean body mass gain over the total study period,"young female rats; all dose groups 6.25–50.00 mg/kg oral, three consecutive days",significantly reduced mean body mass gain
same,Respiratory rate,young female rats; any dose group 6.25–50.00 mg/kg oral,in none of the animals in any dose group was significantly effected
same,water consumption,"young female rats; higher dose groups, oral, three consecutive days",increased water consumption
same,food intake and body mass gain,young female rats; lowest dose group 6.25 mg/kg oral,Reduced food intake and reduced body mass gain
same,appetite suppressive action,"young female rats; lowest dose tested 6,25 mg/kg oral",has appetite suppressive action
